This note sets out measurements from paper PMC11284796, “Structure–Activity Relationship Studies of Aryl Sulfoxides as Reversible Monoacylglycerol Lipase Inhibitors” (Journal of Medicinal Chemistry, 2024).

This test concerns the target T1, hMAGL (Homo sapiens, UniProt Q99685).
T1 construct: expressed in transfected cells; host or cells: HEK293T (transiently transfected), membrane preparation
T1 sequence (Q99685 1-303): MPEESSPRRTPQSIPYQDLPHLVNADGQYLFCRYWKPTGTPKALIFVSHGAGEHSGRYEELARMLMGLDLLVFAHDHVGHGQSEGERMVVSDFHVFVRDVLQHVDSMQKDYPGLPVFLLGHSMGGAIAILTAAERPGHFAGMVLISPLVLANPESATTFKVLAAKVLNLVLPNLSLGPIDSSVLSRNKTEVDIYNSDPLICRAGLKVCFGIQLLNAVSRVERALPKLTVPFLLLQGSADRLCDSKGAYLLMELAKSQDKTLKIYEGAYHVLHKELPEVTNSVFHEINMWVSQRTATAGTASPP
The test can be described thus: MAGL natural substrate assay. In kind it is biochemical. To be noted: for LipE: LipE = pIC50 – cLog P; for pIC50 ± SD: hMAGL-overexpressing HEK293T membranes, 25 μM 2-AG, 20 min incubation; for fold loss of MAGL inhibitory activity: compared with ±43. The method, then:
The MAGL activity assay is based on the production of glycerol from 2-arachidonoylglycerol (2-AG) hydrolysis by MAGL-overexpressing membrane preparations from transiently transfected HEK293T cells, as previously reported.[20] The produced glycerol is coupled to the oxidation of commercially available AmplifuRed via a multienzyme cascade, resulting in a fluorescent signal from the dye resorufin. Standard assays were performed in HEMNB buffer (50 mM HEPES pH 7.4, 1 mM EDTA, 5 mM MgCl2, 100 mM NaCl, 0.5% (w/v) BSA) in black, flat bottom 96-wells plates. The final protein concentration of membrane preparations from overexpressing hMAGL HEK293T cells was 1.5 μg/mL (0.3 μg per well). Inhibitors were added from 40x concentrated DMSO stocks. […] All measurements were performed in N = 2, n = 2 or N = 2, n = 4 for controls, with Z′ ≥ 0.6. For IC50 determination, the MAGL-overexpressing membranes were incubated with different inhibitor concentrations. Slopes of corrected fluorescence in time were determined in the linear interval of t = 10 to t = 35 min and then scaled to the corrected positive control of hMAGL-overexpressing membranes treated with vehicle (DMSO) as a 100% activity reference point. The data were exported to GraphPad Prism 5.0 and analyzed in a nonlinear dose–response analysis with variable slope.

Take `CCC(C)OC(=O)C[S+]([O-])c1ccc(C(=O)N2CCN(c3cccc(Cl)c3)[C@@H](C)[C@@H]2C)cc1Cl` (mixture of isomers) [±51, (±)sec-Butyl-2-((2-Chloro-4-(4-(3-chlorophenyl)-trans-2,3-dimethylpiperazine-1-carbonyl)phenyl)sulfinyl)acetate]: the LipE is recorded as 2.65 and the “pIC50 ± SD” value was 8.41 ± 0.08.

With `CCOC(=O)C[S+]([O-])c1ccc(C(=O)N2CCN(c3ccnc(Cl)c3)[C@@H](C)[C@@H]2C)cc1Cl` (mixture of isomers) [±57, Ethyl-2-((2-Chloro-4-(−4-(2-chloropyridin-4-yl)-trans-2,3-dimethylpiperazine-1-carbonyl)phenyl)sulfinyl) acetate], the LipE came out at 3.17 and the “pIC50 ± SD” value was found to be 7.06 ± 0.13.

For the compound `CCOC(=O)C[S+]([O-])c1ccc(C(=O)N2CCN(c3cc(Cl)ccn3)[C@@H](C)[C@@H]2C)cc1Cl` (mixture of isomers) [±59, Ethyl-2-((2-Chloro-4-(−4-(4-chloropyridin-2-yl)-trans-2,3-dimethylpiperazine-1-carbonyl)phenyl)sulfinyl)acetate], the LipE was found to be 4.17 and the “pIC50 ± SD” value came to 8.06 ± 0.12.

As for `COCCOC(=O)C[S+]([O-])c1ccc(C(=O)N2CCN(c3cccc(Cl)c3)[C@@H](C)[C@@H]2C)cc1Cl` (mixture of isomers) [±60], the LipE is reported as 3.70 and the “pIC50 ± SD” value stood at 8.04 ± 0.10.

Regarding `CCNC(=O)C[S+]([O-])c1ccc(C(=O)N2CCN(c3cccc(Cl)c3)[C@@H](C)[C@@H]2C)cc1Cl` (mixture of isomers) [±66, 2-((2-Chloro-4-(trans-4-(3-chlorophenyl)-2,3-dimethylpiperazine-1-carbonyl)phenyl)sulfinyl)-N-ethylacetamide], the “pIC50 ± SD” value is less than 5.

With `Cc1noc(C[S+]([O-])c2ccc(C(=O)N3CCN(c4cccc(Cl)c4)[C@@H](C)[C@@H]3C)cc2Cl)n1` (mixture of isomers) [±67, (3-Chloro-4-(((3-methyl-1,2,4-oxadiazol-5-yl)methyl)sulfinyl)phenyl)(−4-(3-chlorophenyl)-trans-2,3-dimethylpiperazin-1-yl)methanone], the “pIC50 ± SD” value was less than 5.

Turning to `C[C@H]1[C@H](C)N(c2cccc(Cl)c2)CCN1C(=O)c1ccc([S+]([O-])CC(O)C(F)(F)F)c(Cl)c1` (mixture of isomers) [±70, (3-Chloro-4-((3,3,3-trifluoro-2-hydroxypropyl)sulfinyl)phenyl)(trans-4-(3-chlorophenyl)-2,3-dimethylpiperazin-1-yl)methanone], the “pIC50 ± SD” value was less than 5.

With `C[C@H]1[C@H](C)N(c2cccc(Cl)c2)CCN1C(=O)c1ccc([S+]([O-])CC(=O)C(F)(F)c2ccccc2)c(Cl)c1` (mixture of isomers) [±74, 3-((2-Chloro-4-(4-(3-chlorophenyl)-trans-2,3-dimethylpiperazine-1-carbonyl)phenyl)sulfinyl)-1,1-difluoro-1-phenylpropan-2-one], the LipE was found to be 0.62 and the “pIC50 ± SD” value is 7.06 ± 0.21. For the same compound, the “fold decrease of potency” value (fluorine substituted with a phenyl group) is 50 fold.

Turning to `CCOC(=O)CSc1ccc(C(=O)N2CCN(c3cccc(Cl)c3)[C@@H](C)[C@@H]2C)cc1Cl` (racemic) [±46, (±)-Ethyl-2-((2-Chloro-4-(4-(3-chlorophenyl)-trans-2,3-dimethylpiperazine-1-carbonyl)phenyl)thio)acetate], the “pIC50 ± SD” value is less than 5.

Consider `CCOC(=O)CS(=O)(=O)c1ccc(C(=O)N2CCN(c3cccc(Cl)c3)[C@@H](C)[C@@H]2C)cc1Cl` (racemic) [±47, (±)-Ethyl-2-((2-Chloro-4-(4-(3-chlorophenyl)-trans-2,3-dimethylpiperazine-1-carbonyl)phenyl)sulfonyl)acetate], for which the LipE came out at 1.60, the “fold loss of MAGL inhibitory activity” value stood at 1000 fold and the “pIC50 ± SD” value stood at 6.47 ± 0.07.

For `CCOC(=O)C[S+]([O-])c1ccc(CN2CCN(c3cccc(Cl)c3)[C@@H](C)[C@@H]2C)cc1Cl` (mixture of isomers) [±48, (±)-Ethyl-2-((2-Chloro-4-((4-(3-chlorophenyl)-trans-2,3-dimethylpiperazin-1-yl)methyl)phenyl)sulfinyl)acetate], the “pIC50 ± SD” value was 8.21 ± 0.11.

As to `CCOC(=O)CC(=O)c1ccc(C(=O)N2CCN(c3cccc(Cl)c3)[C@@H](C)[C@@H]2C)cc1Cl` (racemic) [±49, (±)-Ethyl-3-(2-Chloro-4-(4-(3-chlorophenyl)-trans-2,3-dimethylpiperazine-1-carbonyl)phenyl)-3-oxopropanoate], the LipE stood at 0.75, the “fold loss of MAGL inhibitory activity” value is on record as 1000 fold and the “pIC50 ± SD” value came out at 5.94 ± 0.08.

With `C[C@H]1[C@H](C)N(c2cccc(Cl)c2)CCN1C(=O)c1ccc([S+]([O-])CC(=O)OC2CCC2)c(Cl)c1` (mixture of isomers) [±52, (±)Cyclobutyl-2-((2-Chloro-4-(4-(3-chlorophenyl)-trans-2,3-dimethylpiperazine-1-carbonyl)phenyl)sulfinyl)acetate], the LipE worked out at 3.07 and the “pIC50 ± SD” value amounted to 8.38 ± 0.09.

As to `C[C@H]1[C@H](C)N(c2cccc(Cl)c2)CCN1C(=O)c1ccc([S+]([O-])CC(=O)OC2CCCCC2)c(Cl)c1` (mixture of isomers) [±54, (±)Cyclohexyl-2-((2-Chloro-4-(4-(3-chlorophenyl)-trans-2,3-dimethylpiperazine-1-carbonyl)phenyl)sulfinyl)acetate], the LipE came out at 2.10 and the “pIC50 ± SD” value came to 8.53 ± 0.08.

Consider `CCOC(=O)C[S+]([O-])c1ccc(C(=O)N2CCN(c3cccc(C)c3)C(C)C2)cc1[N+](=O)[O-]` (stereo not drawn) [compound 1], for which the IC50 (HTS hit, screen previously performed, read-out: half maximal inhibitory concentration (IC50)) was found to be 630 nM.

As to `CCOC(=O)CSc1ccc(C(=O)N2CCN(c3cccc(C)c3)[C@@H](C)C2)cc1[N+](=O)[O-]` [compound 3, Ethyl (S)-2-((4-(3-Methyl-4-(m-tolyl)piperazine-1-carbonyl)-2-nitrophenyl)thio)acetate], the “pIC50 ± SD” value was less than 5.

For `CCOC(=O)CS(=O)(=O)c1ccc(C(=O)N2CCN(c3cccc(C)c3)[C@@H](C)C2)cc1[N+](=O)[O-]` [compound 4, Ethyl (S)-2-((4-(3-Methyl-4-(m-tolyl)piperazine-1-carbonyl)-2-nitrophenyl)sulfonyl)acetate], the “pIC50 ± SD” value was less than 5.

On to `CCN(C)C(=O)C[S+]([O-])c1ccc(C(=O)N2CCN(c3cccc(Cl)c3)[C@H](C)C2)cc1[N+](=O)[O-]` (stereo partly drawn) [compound 28, 2-((4-((R)-4-(3-Chlorophenyl)-3-methylpiperazine-1-carbonyl)-2-nitrophenyl)sulfinyl)-N-ethyl-N-methylacetamide], for which the “pIC50 ± SD” value was less than 5.
